Results reported in patent US20250099420A1, “SMALL MOLECULE MODULATORS OF GPR139 COMPLEX” (University of Florida Research Foundation, Incorporated, priority 2022, published 2025).
Like-named read-outs stand apart in the source and are kept apart here.

Legend:
GPR139 = target: T1, GPR139 (Homo sapiens, UniProt Q6DWJ6); experiment: GPR139 Agonist titration / agonist counterscreen assay (calcium detection, HEK-GPR139 cells); type: cell-based; parameters: expressed in transfected cells; host or cells: HEK Aequorin cells, Maxcyte transient transfection; details: GPR139 Agonist Activity; for Averaged Max % Response (±St. Dev.): activity relative to known control; for EC50: read-out: EC50
T1 sequence (Q6DWJ6 1-353): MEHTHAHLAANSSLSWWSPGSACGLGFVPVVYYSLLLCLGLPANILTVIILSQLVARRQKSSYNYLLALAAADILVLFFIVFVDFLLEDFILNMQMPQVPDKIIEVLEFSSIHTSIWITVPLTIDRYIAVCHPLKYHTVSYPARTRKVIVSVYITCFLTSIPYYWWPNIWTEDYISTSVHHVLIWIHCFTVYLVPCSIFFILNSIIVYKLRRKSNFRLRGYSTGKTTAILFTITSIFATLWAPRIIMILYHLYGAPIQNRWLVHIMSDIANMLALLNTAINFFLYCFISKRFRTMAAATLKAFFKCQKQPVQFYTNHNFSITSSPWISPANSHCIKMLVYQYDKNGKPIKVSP
Protocol: GPR activity was assessed using a calcium detection assay. […] Negative control samples were treated with DMSO. […] Intracellular calcium was measured using Calcium 5.

parental HEK cells = experiment: HEK parental Agonist Counterscreen Assay (non-transfected cells); type: cell-based; details: for Averaged Max % Response (±St. Dev.): activity relative to known control
From the text: The high control for the agonist counterscreen was Forskolin not acetylcholine.

[1] = values printed in E-notation without unit
[2] = Homo sapiens, HEK293, HEK Agonist Activity, parental non-transfected HEK cells
[3] = Homo sapiens, HEK293, HEK Agonist Activity section of Table 4 (parental HEK counterscreen)

Compound | Averaged Max % Response (±St. Dev.) (GPR139) [%] | Lipophilic Efficiency (logD) (GPR139; based on logD) | Lipophilic Efficiency (logP) (GPR139; based on logP) | Hill Slope (GPR139; fitted dose-response curve) | Efficiency Ligand (GPR139; ligand efficiency) | EC50 (GPR139; [1]) [nM] | Lipophilic Efficiency (logD) (parental HEK cells; HEK Agonist Activity section) | Lipophilic Efficiency (logP) (parental HEK cells; HEK Agonist Activity section) | Averaged Max % Response (±St. Dev.) (parental HEK cells; HEK Agonist Activity section) [%] | Lipophilic Efficiency (logD) (parental HEK cells; HEK Agonist Activity) | Lipophilic Efficiency (logP) (parental HEK cells; HEK Agonist Activity) | Averaged Max % Response (±St. Dev.) (parental HEK cells; HEK Agonist Activity) [%] | Efficiency Ligand (GPR139) | Hill Slope (GPR139) | Lipophilic Efficiency (logD) (GPR139) | Lipophilic Efficiency (logP) (GPR139) | EC50 (GPR139; HEK-GPR139 cells) [nM] | EC50 (parental HEK cells; [3]) [nM] | further results
COc1ccc(CCNC(=O)c2cccc(-c3ccc(OC)nc3)c2)cc1 [SR-01000652579] | 108.92 ± 9.07 | 3.26 | 3.26 | 0.44 | 0.36 | 93.2 | 1.08 | 1.08 | 11.17 ± 6.82 |  |  |  |  |  |  |  |  |  | EC50 (parental HEK cells; HEK Agonist Activity section of Table 4 (parental HEK counterscreen)): > 14200 nM
CCc1nn(CC(=O)NCc2cccc(Br)c2)c(=O)c2cc3occc3n12 [SR-01000099472] | 105.06 ± 17.21 | 5.32 | 5.32 | 0.88 | 0.39 | 26.3 |  |  |  | 2.60 | 2.60 | 10.79 ± 6.86 |  |  |  |  |  |  | EC50 (parental HEK cells; [2]): > 14100 nM
O=C(Cn1ncc2c1-c1ccccc1OC2)Nc1ccc(Cl)cc1 [SR-01000152099] | 112.22 ± 29.96 |  |  |  |  |  | 2.23 | 2.23 | 29.06 ± 12.18 |  |  |  | 0.36 | 0.62 | 3.61 | 3.61 | 589 | > 14100 | 
COc1ccc(C)cc1NC(=O)NNC(=O)C(C)Oc1ccc(F)cc1Cl (stereo not shown) [SR-01000277633] | 93.18 ± 13.55 |  |  |  |  |  | 1.40 | 1.38 | −5.71 ± 6.76 |  |  |  | 0.33 | 1.11 | 2.85 | 2.82 | 508 | > 14100 | 
Cc1ccc(SCC(=O)Nc2nnc(-c3ccccc3Cl)o2)cc1 [SR-01000021416] | 122.23 ± 2.65 | 3.53 | 3.53 | 0.24 | 0.44 | 29.1 |  |  |  | 0.84 | 0.84 | 23.13 ± 4.18 |  |  |  |  |  |  | EC50 (parental HEK cells; [2]): > 14100 nM
CC(C)C1CC(=O)[C@@H]2C[C@@H](CC2C(=O)CC2CCOc3ccccc3C2)C2C=CC(=C2)CCC(=O)[C@@H](Cc2ccccc2)NC1=O (stereo partly shown) [SR-05000709044] | 99.08 ± 8.57 | 6.97 | 6.95 | 0.79 | 0.24 | 13.8 |  |  |  | 3.96 | 3.94 | −2.44 ± 4.17 |  |  |  |  |  |  | EC50 (parental HEK cells; HEK Agonist Activity, parental non-transfected HEK cells): > 14100 nM
COc1ccccc1NC(=O)C(=O)NNC(=O)COc1ccc(Br)cc1C [SR-01000325257] | 66.69 ± 11.44 |  |  |  |  |  | 2.48 | 2.44 | −2.80 ± 2.96 |  |  |  | 0.29 | 0.69 | 3.27 | 3.22 | 2300 | > 14100 | 
